The assay relates to acute allograft rejection. Description: murine cardiac ear pinna model of acute allograft rejection (non-vascularized cardiac tissue transplantation). The class given is in vivo. Particulars: monotherapy; for Graft Survival, Mean ± Std Dev (mean survival days): day 0 to 17, BALB/C neonatal hearts into C3H/HeN ear pinna, assessed day 6 to 18. The source says:
Methods: A rapid, facile 2-week murine bioassay of non-vascularized cardiac tissue transplantation,t he murine cardiac ear pinna model of acute allograft rejection, was used to evaluate the dose-response relationship of immunosuppressive drugs on allograft rejection. In this model, donor BALB/C (H2^d) neonatal hearts are transplanted into recipient C3H/HeN (H2^k) ear pinna pouches without vacular anastomoses. Survivinghearts are revascularized and usually resume beating on day 3 to 6. Untreated allografts failed prior to day 12 (MST = 10.5 + 0.9d, n=13). Isografts survived indefinitely. All compounds are given on day 0 to 17 COMPOUND P [(+)-2-[3,4-dihydro(3S,4R)-4-hydroxy-3-(4-phenyl-phenylmethyl)-7-(2H,1-benzopyran)]cyclopentane carboxylic acid] was given orally in 0.5% Methylcellulose. Grafts were assessed by visual examination for contraction on alternate days (from 6 to 18) and graft survival was defined as the post-transplant day on which contractions cease. Efficacy data from day 6 to 18 is presented as mean survival days (+SD) and was analyzed by Log Rank Analysis. Graft survival values were determined at day 18. Any graft surviving at day 18 was censored for statistical purposes.

As for `O=C(O)C1CCCC1c1ccc2c(c1)OC[C@H](Cc1ccc(-c3ccccc3)cc1)[C@H]2O` (single isomer, unassigned; (+)) [COMPOUND P], the “efficacy as a single agent in acute rejection (graft survival on day 18)” value is “significant (p<0.01)” (highest dose, 300 mg/kg d); “not at the lower doses tested” (lower doses tested (200, 100, and 30 mg/kg)). Further, the “Graft Survival, Mean ± Std Dev (mean survival days)” value (from here on “Graft Survival, Mean ± Std Dev”) (30 mg/kg/d orally in 0.5% Methylcellulose) amounted to 11.0 ± 1.1 days; the “Graft Survival, Mean ± Std Dev” value (100 mg/kg/d orally in 0.5% Methylcellulose) was 10.3 ± 0.7 days; the “Graft Survival, Mean ± Std Dev” value (200 mg/kg/d orally in 0.5% Methylcellulose) was determined as 10.3 ± 0.7 days; the “Graft Survival, Mean ± Std Dev” value (300 mg/kg/d orally in 0.5% Methylcellulose) was 11.8 ± 1.1 days.
